Values of other authors in patent US20250064971A1, “SUSTAINED RELEASE FORMULATIONS AND METHODS OF USE THEREOF” (VIRGINIA COMMONWEALTH UNIVERSITY, priority 2022, published 2025).

Target: hERG (Homo sapiens, UniProt Q12809)
Settings: compared to LAAM

hERG, sequence (Q12809 whole entry): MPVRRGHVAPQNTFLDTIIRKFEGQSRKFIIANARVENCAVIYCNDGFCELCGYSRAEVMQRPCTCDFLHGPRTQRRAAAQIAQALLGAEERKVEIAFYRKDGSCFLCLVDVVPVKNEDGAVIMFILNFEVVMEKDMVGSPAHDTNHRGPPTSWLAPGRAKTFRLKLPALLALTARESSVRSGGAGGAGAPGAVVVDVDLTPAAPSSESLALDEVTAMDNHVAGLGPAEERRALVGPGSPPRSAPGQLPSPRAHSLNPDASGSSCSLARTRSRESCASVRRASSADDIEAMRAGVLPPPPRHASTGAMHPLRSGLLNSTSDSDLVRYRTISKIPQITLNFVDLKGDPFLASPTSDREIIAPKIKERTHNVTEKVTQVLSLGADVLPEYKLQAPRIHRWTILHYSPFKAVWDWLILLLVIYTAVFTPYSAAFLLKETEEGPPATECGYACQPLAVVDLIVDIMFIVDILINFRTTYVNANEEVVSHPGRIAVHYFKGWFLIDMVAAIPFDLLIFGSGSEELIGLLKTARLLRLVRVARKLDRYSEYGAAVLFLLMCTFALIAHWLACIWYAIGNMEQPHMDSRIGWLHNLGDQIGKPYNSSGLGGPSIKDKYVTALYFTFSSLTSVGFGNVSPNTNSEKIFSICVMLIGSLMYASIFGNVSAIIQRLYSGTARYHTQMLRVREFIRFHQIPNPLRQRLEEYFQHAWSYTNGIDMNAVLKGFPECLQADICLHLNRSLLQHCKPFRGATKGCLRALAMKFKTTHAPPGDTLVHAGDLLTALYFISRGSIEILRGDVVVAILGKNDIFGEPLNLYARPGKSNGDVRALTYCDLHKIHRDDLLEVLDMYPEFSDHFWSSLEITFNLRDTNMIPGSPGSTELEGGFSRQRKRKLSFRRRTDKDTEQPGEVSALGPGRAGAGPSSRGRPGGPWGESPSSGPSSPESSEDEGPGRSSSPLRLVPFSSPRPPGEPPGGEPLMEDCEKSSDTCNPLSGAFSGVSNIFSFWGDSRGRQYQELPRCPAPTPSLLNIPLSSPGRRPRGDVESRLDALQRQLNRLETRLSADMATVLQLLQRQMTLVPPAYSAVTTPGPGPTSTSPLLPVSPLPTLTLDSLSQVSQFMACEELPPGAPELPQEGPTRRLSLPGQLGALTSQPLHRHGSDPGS

CCC(OC(C)=O)C(CC(C)NC)(c1ccccc1)c1ccccc1 (stereo not shown) [nor-LAAM]
hERG inhibition IC50 (comparison in words): higher hERG inhibition IC50 than LAAM
